Measurements taken from patent publication US20260256792A1, “TREATMENT OF CHRONIC SPONTANEOUS URTICARIA BY ADMINISTERING (R)-2-[3-[4-AMINO-3-(2-FLUORO-4-PHENOXY-PHENYL)PYRAZOLO[3,4-D]PYRIMIDIN-1-YL]PIPERIDINE-1-CARBONYL]-4-METHYL-4-[4-(OXETAN-3-YL)PIPERAZIN-1-YL]PENT-2-ENENITRILE” (priority 2023, published 2026).

Tested on: moderate-to-severe chronic spontaneous urticaria (CSU)
Experiment: Phase 2 CSU study: itch severity score over 7 days (ISS7)
Type: in vivo, human
Settings: for Change from Baseline in ISS7 at Week 12, LS Mean Diff vs. placebo / Change from Baseline in ISS7 at Week 12, Mean / Change from Baseline in ISS7 at Week 12, LS Mean: Omalizumab-naïve population; for ISS7 change from baseline at Week 12, LS Mean / ISS7 change from baseline at Week 12, LS Mean Diff vs. placebo: ANCOVA
From the text: The study comprises a 12 week, randomized, double-blind, placebo-controlled, multi-center, dose-ranging efficacy and safety phase, followed by a 40 week open label extension (OLE) phase (see FIG. 1). The study consists of three phases and an optional OLE phase. […] Clinically, CSU is characterized by the spontaneous and recurrent appearance of pruritic hives. The proposed primary endpoints were the UAS7 at Week 12 in EU and EU reference countries and the ISS7 in the US. Regardless of where a participant was from, all assessments were the same. The UAS7 score is a composite score containing both the HSS7 and the ISS7. This allowed a global assessment of the two key components of urticaria: hives and itch. […] The UAS is a validated PRO measure. […] The daily UAS scores range from 0 to 6 point/day. […] Patients were to complete the UAS using the e-diary. […] The following secondary endpoints were to be analyzed using the same approach as for the primary endpoint: • Change from baseline in UAS7 at Week 4 • Change from baseline in UAS7 at Week 12 (for US and US reference countries) • Change from baseline in ISS7 at Week 12 (except US and US reference countries) • Change from baseline in HSS7 at Week 12

[1] = 400 mg BID, Race All the Others
[2] = 400 mg BID, Region Eastern Europe
[3] = 400 mg BID, Region Latin America
[4] = 400 mg BID, Region Western Countries
[5] = 400 mg BID, omalizumab-naïve population
[6] = 400 mg BID, omalizumab-naïve population with outlier removed
[7] = 400 mg QPM, Age group (years) <44 (Median)
[8] = 400 mg QPM, Age group (years) <65
[9] = 400 mg QPM, Age group (years) ≥44 (Median)
[10] = 400 mg QPM, Baseline BHRA BHRA+
[11] = 400 mg QPM, Baseline BHRA BHRA−
[12] = 400 mg QPM, Baseline Eosinophils (10^9/L) <0.165 (Median)
[13] = 400 mg QPM, Baseline Eosinophils (10^9/L) <0.3
[14] = 400 mg QPM, Baseline Eosinophils (10^9/L) ≥0.165 (Median)
[15] = 400 mg QPM, Baseline Eosinophils (10^9/L) ≥0.3
[16] = 400 mg QPM, Baseline H1-antihistamines dose 1-fold
[17] = 400 mg QPM, Baseline H1-antihistamines dose 2 to 4-fold standard dose
[18] = 400 mg QPM, Baseline ISS7 score <13
[19] = 400 mg QPM, Baseline ISS7 score ≥13
[20] = 400 mg QPM, Baseline Total IgE (IU/mL) <100
[21] = 400 mg QPM, Baseline Total IgE (IU/mL) <300
[22] = 400 mg QPM, Baseline Total IgE (IU/mL) ≥100
[23] = 400 mg QPM, Baseline Total IgE (IU/mL) ≥300
[24] = 400 mg QPM, Baseline UAS7 score <28
[25] = 400 mg QPM, Baseline UAS7 score ≥28
[26] = 400 mg QPM, Duration of disease (years) 2-10

## CC(C)(C=C(C#N)C(=O)N1CCC[C@@H](n2nc(-c3ccc(Oc4ccccc4)cc3F)c3c(N)ncnc32)C1)N1CCN(C2COC2)CC1 [rilzabrutinib, (R)-2-[3-[4-amino-3-(2-fluoro-4-phenoxy-phenyl)pyrazolo[3,4-d]pyrimidin-1-yl]piperidine-1-carbonyl]-4-methyl-4-[4-(oxetan-3-yl)piperazin-1-yl]pent-2-enenitrile]
[1]
  Change from Baseline in ISS7 at Week 12, LS Mean Diff vs. placebo: −3.52
  Change from Baseline in ISS7 at Week 12, Mean: −6.86
400 mg BID, Race White
  Change from Baseline in ISS7 at Week 12, LS Mean: −7.91
  Change from Baseline in ISS7 at Week 12, LS Mean Diff vs. placebo: −1.90
  Change from Baseline in ISS7 at Week 12, Mean: −7.64
400 mg BID, Region Asia
  Change from Baseline in ISS7 at Week 12, LS Mean: −6.99
  Change from Baseline in ISS7 at Week 12, LS Mean Diff vs. placebo: −3.54
  Change from Baseline in ISS7 at Week 12, Mean: −6.86
[2]
  Change from Baseline in ISS7 at Week 12, LS Mean: −4.38
  Change from Baseline in ISS7 at Week 12, LS Mean Diff vs. placebo: 8.28
  Change from Baseline in ISS7 at Week 12, Mean: −10.81
[3]
  Change from Baseline in ISS7 at Week 12, LS Mean: −4.75
  Change from Baseline in ISS7 at Week 12, LS Mean Diff vs. placebo: 1.84
  Change from Baseline in ISS7 at Week 12, Mean: −4.42
[4]
  Change from Baseline in ISS7 at Week 12, LS Mean: −10.12
  Change from Baseline in ISS7 at Week 12, LS Mean Diff vs. placebo: −5.57
  Change from Baseline in ISS7 at Week 12, Mean: 9.95
[5]
  ISS7 at Week 12, Mean: 8.09
  ISS7 at Week 12, Median: 7.00
  ISS7 change from baseline at Week 12, Mean: −7.40
  ISS7 change from baseline at Week 12, Median: −7.00
  LS mean reduction in ISS7 (see Table 30): −5.06
  ISS7 change from baseline at Week 12, LS Mean: −7.73 points
  ISS7 change from baseline at Week 12, LS Mean Diff vs. placebo: −1.96
[6]
  ISS7 at Week 12, Mean: 8.09
  ISS7 at Week 12, Median: 7.00
  ISS7 change from baseline at Week 12, Mean: −7.40
  ISS7 change from baseline at Week 12, Median: −7.00
  ISS7 change from baseline at Week 12, LS Mean: −7.76 points
  ISS7 change from baseline at Week 12, LS Mean Diff vs. placebo: −2.05
[7]
  Change from Baseline in ISS7 at Week 12, LS Mean: −4.68
  Change from Baseline in ISS7 at Week 12, LS Mean Diff vs. placebo: −0.21
  Change from Baseline in ISS7 at Week 12, Mean: −5.45
[8]
  Change from Baseline in ISS7 at Week 12, LS Mean: −4.78
  Change from Baseline in ISS7 at Week 12, LS Mean Diff vs. placebo: 0.88
  Change from Baseline in ISS7 at Week 12, Mean: −5.68
[9]
  Change from Baseline in ISS7 at Week 12, LS Mean: −4.77
  Change from Baseline in ISS7 at Week 12, LS Mean Diff vs. placebo: 1.83
  Change from Baseline in ISS7 at Week 12, Mean: −5.95
400 mg QPM, Age group (years) ≥65
  Change from Baseline in ISS7 at Week 12, Mean: −5.83
[10]
  Change from Baseline in ISS7 at Week 12, LS Mean: −8.50
  Change from Baseline in ISS7 at Week 12, LS Mean Diff vs. placebo: −3.12
  Change from Baseline in ISS7 at Week 12, Mean: −9.13
[11]
  Change from Baseline in ISS7 at Week 12, LS Mean: −4.66
  Change from Baseline in ISS7 at Week 12, Mean: −5.45
400 mg QPM, Baseline BMI (kg/m^2) ≥30
  Change from Baseline in ISS7 at Week 12, LS Mean Diff vs. placebo: 0.17
[12]
  Change from Baseline in ISS7 at Week 12, LS Mean: −4.00
  Change from Baseline in ISS7 at Week 12, LS Mean Diff vs. placebo: 2.51
  Change from Baseline in ISS7 at Week 12, Mean: −4.93
[13]
  Change from Baseline in ISS7 at Week 12, LS Mean: −4.64
  Change from Baseline in ISS7 at Week 12, LS Mean Diff vs. placebo: 0.83
  Change from Baseline in ISS7 at Week 12, Mean: −5.66
[14]
  Change from Baseline in ISS7 at Week 12, LS Mean: −5.54
  Change from Baseline in ISS7 at Week 12, LS Mean Diff vs. placebo: −1.46
  Change from Baseline in ISS7 at Week 12, Mean: 6.55
[15]
  Change from Baseline in ISS7 at Week 12, LS Mean: −5.53
  Change from Baseline in ISS7 at Week 12, LS Mean Diff vs. placebo: −0.68
  Change from Baseline in ISS7 at Week 12, Mean: −5.81
[16]
  Change from Baseline in ISS7 at Week 12, LS Mean: −4.24
  Change from Baseline in ISS7 at Week 12, LS Mean Diff vs. placebo: 2.59
  Change from Baseline in ISS7 at Week 12, Mean: −5.09
[17]
  Change from Baseline in ISS7 at Week 12, LS Mean: −5.28
  Change from Baseline in ISS7 at Week 12, LS Mean Diff vs. placebo: −1.80
  Change from Baseline in ISS7 at Week 12, Mean: −6.37
[18]
  Change from Baseline in ISS7 at Week 12, LS Mean: −1.87
  Change from Baseline in ISS7 at Week 12, LS Mean Diff vs. placebo: 0.85
  Change from Baseline in ISS7 at Week 12, Mean: −4.42
[19]
  Change from Baseline in ISS7 at Week 12, LS Mean: −5.38
  Change from Baseline in ISS7 at Week 12, LS Mean Diff vs. placebo: 0.36
  Change from Baseline in ISS7 at Week 12, Mean: −5.78
[20]
  Change from Baseline in ISS7 at Week 12, LS Mean: −3.37
  Change from Baseline in ISS7 at Week 12, LS Mean Diff vs. placebo: 0.87
  Change from Baseline in ISS7 at Week 12, Mean: −4.48
[21]
  Change from Baseline in ISS7 at Week 12, LS Mean: −4.46
  Change from Baseline in ISS7 at Week 12, LS Mean Diff vs. placebo: 0.05
  Change from Baseline in ISS7 at Week 12, Mean: −5.41
[22]
  Change from Baseline in ISS7 at Week 12, LS Mean: −5.51
  Change from Baseline in ISS7 at Week 12, LS Mean Diff vs. placebo: 0.52
  Change from Baseline in ISS7 at Week 12, Mean: −6.28
[23]
  Change from Baseline in ISS7 at Week 12, LS Mean: −4.90
  Change from Baseline in ISS7 at Week 12, LS Mean Diff vs. placebo: 1.64
  Change from Baseline in ISS7 at Week 12, Mean: −6.11
[24]
  Change from Baseline in ISS7 at Week 12, LS Mean: −3.33
  Change from Baseline in ISS7 at Week 12, LS Mean Diff vs. placebo: −0.15
  Change from Baseline in ISS7 at Week 12, Mean: −5.32
[25]
  Change from Baseline in ISS7 at Week 12, LS Mean: −5.59
  Change from Baseline in ISS7 at Week 12, LS Mean Diff vs. placebo: 1.01
  Change from Baseline in ISS7 at Week 12, Mean: −5.78
[26]
  Change from Baseline in ISS7 at Week 12, LS Mean: −5.24
  Change from Baseline in ISS7 at Week 12, LS Mean Diff vs. placebo: 1.79
  Change from Baseline in ISS7 at Week 12, Mean: −6.43
